Reference: US20150038438A1, “ANTIBACTERIAL COMPOUNDS AND METHODS FOR USE” (PTC THERAPEUTICS, INC., priority 2011, published 2015)
In brackets after ≈: the same amount, converted by molar mass. Structures can show the parent of a compound that is named as a salt.

What was measured:
Test in all cases: Antibacterial activity, microbroth dilution method (MIC)
[1] = tested on: Gram-positive Staphylococcus aureus (S. aureus) 29213; type: cell-based; settings: Staphylococcus aureus, Gram-positive S. aureus 29213
From the text: (§1) The antibacterial activity from a microbroth dilution method may be presented as the minimum inhibitory concentration (MIC in μg/mL). The MIC value is the lowest concentration of drug which prevents macroscopically visible growth under test conditions.
(§2) Antibacterial activity of test compounds against the super sensitive Gram-negative Escherichia coli (E. coli) BAS849 bacterium, the control Gram-negative E. coli 25922 strain and the Gram-positive Staphylococcus aureus (S. aureus) 29213 bacterium are shown in Table 1.

[2] = tested on: super sensitive Gram-negative Escherichia coli (E. coli) BAS849; type: cell-based; settings: Escherichia coli; super sensitive Gram-negative E. coli BAS849; microbroth dilution; read-out: MIC, E. coli BAS849
From the text: as §1, §2

[3] = tested on: control Gram-negative E. coli 25922 strain; type: cell-based, Escherichia coli; settings: Escherichia coli
From the text: as §1, §2

## COCC(C)NCc1cc2cc3c(cc2n1C)OCCc1c-3[nH]c(=O)c(C(=O)O)c1O.Cl (stereo not drawn) [Cpd 184, 4-hydroxy-10-(((1-methoxypropan-2-yl)amino)methyl)-9-methyl-2-oxo-2,5,6,9-tetrahydro-1H-pyrido[2′,3′:4,5]oxepino[3,2-f]indole-3-carboxylic acid hydrochloride]
[1]
  MIC: 12.5 to 150 µg/mL
[2]
  MIC: < 1 µg/mL
[3]
  MIC: 3.5 to 12.5 µg/mL

## CN(C)C1CCN(c2ccc3c(c2)CCCc2c-3[nH]c(=O)c(C(=O)O)c2O)CC1.Cl [Cpd 116, 9-(4-(dimethylamino)piperidin-1-yl)-4-hydroxy-2-oxo-2,5,6,7-tetrahydro-1H-benzo[6,7]cyclohepta[1,2-b]pyridine-3-carboxylic acid hydrochloride]
[1]
  MIC: 12.5 to 150 µg/mL
[2]
  MIC: 3.5 to 12.5 µg/mL
[3]
  MIC: 12.5 to 150 µg/mL

## Cl.O=C(O)c1c(O)c2c([nH]c1=O)-c1ccc(N3C[C@H]4CCCN[C@H]4C3)cc1CCC2 [Cpd 114, 9-((4aR,7aR)-hexahydro-1H-pyrrolo[3,4-b]pyridin-6(2H)-yl)-4-hydroxy-2-oxo-2,5,6,7-tetrahydro-1H-benzo[6,7]cyclohepta[1,2-b]pyridine-3-carboxylic acid hydrochloride]
[1]
  MIC: 12.5 to 150 µg/mL
[2]
  MIC: 1 to 3.5 µg/mL
[3]
  MIC: 3.5 to 12.5 µg/mL

## Cl.Cn1c(CN2CCCC2)cc2cc3c(cc21)OCCc1c-3[nH]c(=O)c(C(=O)O)c1O [Cpd 174, 4-hydroxy-9-methyl-2-oxo-10-(pyrrolidin-1-ylmethyl)-2,5,6,9-tetrahydro-1H-pyrido[2′,3′:4,5]oxepino[3,2-f]indole-3-carboxylic acid hydrochloride]
[1]
  MIC: 12.5 to 150 µg/mL
[2]
  MIC: < 1 µg/mL
[3]
  MIC: 1 to 3.5 µg/mL

## Cl.Cn1c(CNCc2ccccc2)cc2cc3c(cc21)CCCc1c-3[nH]c(=O)c(C(=O)O)c1O [Cpd 34, 10-((benzylamino)methyl)-4-hydroxy-9-methyl-2-oxo-1,2,5,6,7,9-hexahydropyrido[3′,2′:6,7]cyclohepta[1,2-f]indole-3-carboxylic acid hydrochloride]
[1]
  MIC: 1 to 3.5 µg/mL
[2]
  MIC: < 1 µg/mL
[3]
  MIC: 1 to 3.5 µg/mL

## Cl.O=C(O)c1c(O)c2c([nH]c1=O)-c1ccc(N3CCNCC3)cc1CCC2 [Cpd 119, 4-hydroxy-2-oxo-9-(piperazin-1-yl)-2,5,6,7-tetrahydro-1H-benzo[6,7]cyclohepta[1,2-b]pyridine-3-carboxylic acid hydrochloride]
[1]
  MIC: 12.5 to 150 µg/mL
[2]
  MIC: 3.5 to 12.5 µg/mL
[3]
  MIC: 12.5 to 150 µg/mL

## CCNCc1cc2cc3c(cc2n1C)CCCCc1c-3[nH]c(=O)c(C(=O)O)c1O.Cl [Cpd 59, 11-((ethylamino)methyl)-4-hydroxy-10-methyl-2-oxo-2,5,6,7,8,10-hexahydro-1H-pyrido[3′,2′:7,8]cycloocta[1,2-f]indole-3-carboxylic acid hydrochloride]
[1]
  MIC: 3.5 to 12.5 µg/mL
[2]
  MIC: < 1 µg/mL
[3]
  MIC: < 1 µg/mL

## O=C(O)c1c(O)c2c([nH]c1=O)-c1ccc(N3CCCC3)cc1NCC2 [Cpd 94, 4-hydroxy-2-oxo-9-(pyrrolidin-1-yl)-2,5,6,7-tetrahydro-1H-benzo[b]pyrido[2,3-d]azepine-3-carboxylic acid]
[1]
  MIC: 12.5 to 150 µg/mL (≈ 36.6 to 439 µM)
[2]
  MIC: < 1 µg/mL
[3]
  MIC: 1 to 3.5 µg/mL (≈ 2.93 to 10.3 µM)

## CC1Cc2cc(N3CCCC3)ccc2-c2[nH]c(=O)c(C(=O)O)c(O)c21 (stereo not drawn) [Cpd 107, 4-hydroxy-5-methyl-2-oxo-8-(pyrrolidin-1-yl)-1,2,5,6-tetrahydrobenzo[h]quinoline-3-carboxylic acid]
[1]
  MIC: 3.5 to 12.5 µg/mL (≈ 10.3 to 36.7 µM)
[2]
  MIC: < 1 µg/mL
[3]
  MIC: 12.5 to 150 µg/mL (≈ 36.7 to 441 µM)

## CN(C)C1CCN(c2ccc3c(c2)NCCc2c-3[nH]c(=O)c(C(=O)O)c2O)C1.Cl (stereo not drawn) [Cpd 95, 9-(3-(dimethylamino)pyrrolidin-1-yl)-4-hydroxy-2-oxo-2,5,6,7-tetrahydro-1H-benzo[b]pyrido[2,3-d]azepine-3-carboxylic acid hydrochloride]
[1]
  MIC: 12.5 to 150 µg/mL
[2]
  MIC: 3.5 to 12.5 µg/mL
[3]
  MIC: 3.5 to 12.5 µg/mL

## CCNCc1cc2cc3c(cc2n1C)OCC(C)c1c-3[nH]c(=O)c(C(=O)O)c1O.Cl (stereo not drawn) [Cpd 92, 10-((ethylamino)methyl)-4-hydroxy-5,9-dimethyl-2-oxo-2,5,6,9-tetrahydro-1H-pyrido[2′,3′:4,5]oxepino[3,2-f]indole-3-carboxylic acid hydrochloride]
[1]
  MIC: 12.5 to 150 µg/mL
[2]
  MIC: 1 to 3.5 µg/mL
[3]
  MIC: 3.5 to 12.5 µg/mL

## N[C@@H]1[C@H]2CN(c3ccc4c(c3)NCCc3c-4[nH]c(=O)c(C(=O)O)c3O)C[C@@H]12 [Cpd 97, 9-((cis,cis)-6-amino-3-azabicyclo[3.1.0]hexan-3-yl)-4-hydroxy-2-oxo-2,5,6,7-tetrahydro-1H-benzo[b]pyrido[2,3-d]azepine-3-carboxylic acid hydrochloride]
[1]
  MIC: 12.5 to 150 µg/mL
[2]
  MIC: 1 to 3.5 µg/mL
[3]
  MIC: 3.5 to 12.5 µg/mL

## Cl.Cn1c(CNCC2CCC2)cc2cc3c(cc21)CCCc1c-3[nH]c(=O)c(C(=O)O)c1O [Cpd 37, 10-(((cyclobutylmethyl)amino)methyl)-4-hydroxy-9-methyl-2-oxo-1,2,5,6,7,9-hexahydropyrido[3′,2′:6,7]cyclohepta[1,2-f]indole-3-carboxylic acid hydrochloride]
[1]
  MIC: 3.5 to 12.5 µg/mL
[2]
  MIC: < 1 µg/mL
[3]
  MIC: 1 to 3.5 µg/mL

## CCCCNCc1cc2cc3c(cc2n1C)CCCc1c-3[nH]c(=O)c(C(=O)O)c1O.Cl [Cpd 136, 10-((butylamino)methyl)-4-hydroxy-9-methyl-2-oxo-1,2,5,6,7,9-hexahydropyrido[3′,2′:6,7]cyclohepta[1,2-f]indole-3-carboxylic acid hydrochloride]
[1]
  MIC: 3.5 to 12.5 µg/mL
[2]
  MIC: < 1 µg/mL
[3]
  MIC: < 1 µg/mL

## COCCNCc1cc2cc3c(cc2n1C)CCCc1c-3[nH]c(=O)c(C(=O)O)c1O.Cl [Cpd 148, 4-hydroxy-10-(((2-methoxyethyl)amino)methyl)-9-methyl-2-oxo-1,2,5,6,7,9-hexahydropyrido[3′,2′:6,7]cyclohepta[1,2-f]indole-3-carboxylic acid hydrochloride]
[1]
  MIC: 12.5 to 150 µg/mL
[2]
  MIC: < 1 µg/mL
[3]
  MIC: < 1 µg/mL

## Cl.Cn1c(CNCCO)cc2cc3c(cc21)CCCc1c-3[nH]c(=O)c(C(=O)O)c1O [Cpd 147, 4-hydroxy-10-(((2-hydroxyethyl)amino)methyl)-9-methyl-2-oxo-1,2,5,6,7,9-hexahydropyrido[3′,2′:6,7]cyclohepta[1,2-f]indole-3-carboxylic acid hydrochloride]
[1]
  MIC: 12.5 to 150 µg/mL
[2]
  MIC: < 1 µg/mL
[3]
  MIC: 3.5 to 12.5 µg/mL

## CC(C)NCc1cc2cc3c(cc2n1C)CCCc1cc(C(=O)O)c(=O)[nH]c1-3.Cl [Cpd 55, 10-((isopropylamino)methyl)-9-methyl-2-oxo-1,2,5,6,7,9-hexahydropyrido[3′,2′:6,7]cyclohepta[1,2-f]indole-3-carboxylic acid hydrochloride]
[1]
  MIC: 12.5 to 150 µg/mL
[2]
  MIC: < 1 µg/mL
[3]
  MIC: 1 to 3.5 µg/mL

## Cl.Cn1c(CNC2CCC2)cc2cc3c(cc21)CCCc1c-3[nH]c(=O)c(C(=O)O)c1O [Cpd 23, 10-((cyclobutylamino)methyl)-4-hydroxy-9-methyl-2-oxo-1,2,5,6,7,9-hexahydropyrido[3′,2′:6,7]cyclohepta[1,2-f]indole-3-carboxylic acid hydrochloride]
[1]
  MIC: 3.5 to 12.5 µg/mL
[2]
  MIC: < 1 µg/mL
[3]
  MIC: < 1 µg/mL

## COCC(C)NCc1cc2cc3c(cc2n1C)CCCc1c-3[nH]c(=O)c(C(=O)O)c1O.Cl (stereo not drawn) [Cpd 150, 4-hydroxy-10-(((1-methoxypropan-2-yl)amino)methyl)-9-methyl-2-oxo-1,2,5,6,7,9-hexahydropyrido[3′,2′:6,7]cyclohepta[1,2-f]indole-3-carboxylic acid hydrochloride]
[1]
  MIC: 3.5 to 12.5 µg/mL
[2]
  MIC: < 1 µg/mL
[3]
  MIC: 1 to 3.5 µg/mL
